Results published in patent publication US10406122B2 (priority 2011, dated 2019).
Several values for one entry are separate records, joined by “and”; a condition that tells them apart may be missing. Equal values may be shown once. Where a name gives a salt, the structure may show the parent alone.

Assays:
[1] = tested on: patients undergoing TKA or THA; experiment: Example 2: open label study of Tramadol IV in Total knee Arthroplasty or Total Hip Arthroplasty; conditions: for PAIN Intensity Difference, Mean score (SD): 100 mg IV; for Time to first demand of rescue medication after the first dose of Tramadol, Mean: hydrochloride
mice and rats = conditions: cited from earlier work
Beagle dogs = conditions: in vivo

Compound: COc1cccc([C@]2(O)CCCC[C@H]2CN(C)C)c1 (racemic) [Tramadol, (±)cis-2-[(dimethylamino)methyl]-1-(3-methoxyphenyl) cyclohexanol hydrochloride]
- major adverse events ([1]; 100 mg IV every 6 hours, 48 hours): nausea and vomiting, followed by pruritus
- tolerability ([1]; 100 mg QID, patients with both high and low BMI): well tolerated
- Morphine usage, Mean ([1]; 1st dose Tramadol at wound closure, First 24 hours): 10.57 mg
- Morphine usage, Mean ([1]; 1st dose Tramadol at wound closure, In 48 hours): 12.98 mg
- Morphine usage, Mean ([1]; 1st dose Tramadol at wound closure, Loading dose): 4.05 mg
- Morphine usage, Mean ([1]; 1st dose Tramadol at wound closure, Second 24 hours): 3.79 mg
- Morphine usage, Mean ([1]; 1st dose Tramadol on demand, First 24 hours): 11.03 mg
- Morphine usage, Mean ([1]; 1st dose Tramadol on demand, In 48 hours): 12.92 mg
- Morphine usage, Mean ([1]; 1st dose Tramadol on demand, Loading dose): 3.69 mg
- Morphine usage, Mean ([1]; 1st dose Tramadol on demand, Second 24 hours): 4 mg
- PAIN Intensity Difference, Mean score (SD) ([1]; 1st dose at wound closure, 0.5 hours post first dose): 0 (0.09)
- PAIN Intensity Difference, Mean score (SD) ([1]; 1st dose at wound closure, 1 hour post first dose): −0.3 (1.6)
- PAIN Intensity Difference, Mean score (SD) ([1]; 1st dose at wound closure, 2 hours post first dose): −1.2 (1.8)
- PAIN Intensity Difference, Mean score (SD) ([1]; 1st dose at wound closure, 3 hours post first dose): −2.2 (1.9)
- PAIN Intensity Difference, Mean score (SD) ([1]; 1st dose at wound closure, 4 hours post first dose): −2.6 (2.0)
- PAIN Intensity Difference, Mean score (SD) ([1]; 1st dose at wound closure, 6 hours post first dose): −3.2 (2.1)
- PAIN Intensity Difference, Mean score (SD) ([1]; 1st dose at wound closure, 9 hours post first dose): −2.7 (2.2)
- PAIN Intensity Difference, Mean score (SD) ([1]; 1st dose at wound closure, 12 hours post first dose): −2.2 (2.0)
- PAIN Intensity Difference, Mean score (SD) ([1]; 1st dose at wound closure, 18 hours post first dose): −2.2 (2.1)
- PAIN Intensity Difference, Mean score (SD) ([1]; 1st dose at wound closure, 24 hours post first dose): −1.9 (1.5)
- PAIN Intensity Difference, Mean score (SD) ([1]; 1st dose at wound closure, 30 hours post first dose): −1.6 (1.4)
- PAIN Intensity Difference, Mean score (SD) ([1]; 1st dose at wound closure, 36 hours post first dose): −1.3 (1.4)
- PAIN Intensity Difference, Mean score (SD) ([1]; 1st dose at wound closure, 42 hours post first dose): −1.7 (1.8)
- PAIN Intensity Difference, Mean score (SD) ([1]; 1st dose at wound closure, 48 hours post first dose): −1.4 (1.5)
- PAIN Intensity Difference, Mean score (SD) ([1]; 1st dose on demand, 0.5 hours post first dose): −0.1 (2.4)
- PAIN Intensity Difference, Mean score (SD) ([1]; 1st dose on demand, 1 hour post first dose): −0.5 (2.8)
- PAIN Intensity Difference, Mean score (SD) ([1]; 1st dose on demand, 2 hours post first dose): 0.2 (2.1)
- PAIN Intensity Difference, Mean score (SD) ([1]; 1st dose on demand, 3 hours post first dose): 0.3 (2.3)
- PAIN Intensity Difference, Mean score (SD) ([1]; 1st dose on demand, 4 hours post first dose): 0.3 (2.6)
- PAIN Intensity Difference, Mean score (SD) ([1]; 1st dose on demand, 6 hours post first dose): 0.1 (2.8)
- PAIN Intensity Difference, Mean score (SD) ([1]; 1st dose on demand, 9 hours post first dose): 0.8 (2.9)
- PAIN Intensity Difference, Mean score (SD) ([1]; 1st dose on demand, 12 hours post first dose): 1.4 (2.0)
- PAIN Intensity Difference, Mean score (SD) ([1]; 1st dose on demand, 18 hours post first dose): 1.2 (2.2)
- PAIN Intensity Difference, Mean score (SD) ([1]; 1st dose on demand, 24 hours post first dose): 1.6 (1.8)
- PAIN Intensity Difference, Mean score (SD) ([1]; 1st dose on demand, 30 hours post first dose): 1.9 (2.4)
- PAIN Intensity Difference, Mean score (SD) ([1]; 1st dose on demand, 36 hours post first dose): 1.9 (2.1)
- PAIN Intensity Difference, Mean score (SD) ([1]; 1st dose on demand, 42 hours post first dose): 2.1 (2.1)
- PAIN Intensity Difference, Mean score (SD) ([1]; 1st dose on demand, 48 hours post first dose): 2.4 (2.3)
- Time to first demand of rescue medication after the first dose of Tramadol, Mean ([1]; Tramadol at wound Closure group): 2.5 (+/−3) hours and 2.52 hours
- Time to first demand of rescue medication after the first dose of Tramadol, Mean ([1]; Tramadol on demand group): 2.11 h
- Time to first demand of rescue medication after the first dose of Tramadol, Mean ([1]; Tramadol on demand group, listed as tramadol): 2.1 (+/−5.4) hours
- total amount of morphine used ([1]; both groups): approximately 15 mg
- rescue morphine used ([1]; first 24 hours, both groups): about 11 mg
- rescue morphine used ([1]; the next day, both groups): 4 mg
- carcinogenic potential (mice and rats): no evidence of carcinogenic potential
- adverse observations (Beagle dogs; dog): convulsions for two Beagle dogs
- toxicity in humans, conclusion from dog data (Beagle dogs): not toxic
